Source: patent US12304905B2, “Pharmaceutical salts of benzothiazol compounds, polymorphs and methods for preparation thereof” (priority 2019, dated 2025)
In brackets after ≈: the same amount, converted by molar mass. Like-named read-outs stand apart in the source and are kept apart here.

Key:
Assay type in all cases: physicochemical
[1] = Solubility test of free base in bio-relevant media and buffers; conditions: for solubility at 24 h: thermodynamic from solid
Protocol: About 5 mg starting free base were weighed in 2 mL vials. Then 1.0 mL biorelevant media (SGF, FaSSIF and FeSSIF) and buffers were added into the vials. All the vials were placed on the thermo-mixer and kept at 37° C. (700 r/m in). After shaking at 37° C. for 24 hrs, mother liquids obtained by filtration were analyzed by HPLC directly or after being diluted by ACN/water for 20-40 times.

[2] = Solubility test of free base in solvents
Protocol: About 4 mg of (1S,2S)-2-fluoro-N-(6-(4-methylpyridin-3-yl)benzo[d]thiazol-2-yl)cyclopropane-1-carboxamide was weighed into a 2.0 mL glass vial and then selected solvents was added in the vial stepwise until all the solid was dissolved. The experiment was conducted by manual dilution combined with visual observation at 25° C. and 50° C. The total volume of solvent added was recorded.

[3] = Dynamic Vapor Sorption (DVS) of free base
Protocol: Samples (˜10 mg) were transferred into a DVS instrument and recorded the weight change with respect to the atmospheric humidity at 25° C. using the following parameters: • Equilibrium: dm/dt: 0.01%/min. (for min: 10 min and max: 180 min). • Drying: 0% RH for 120 min • RH (%) measurement step: 10% • RH (%) measurement step scope: 0-90-0% (6) Proton Nuclear Magnetic Resonance (1H NMR) • 400 MHz Bruker with DMSO-d6 or MeOH-d4 solvents • Temperature: 27° C.
(1S,2S)-2-fluoro-N-(6-(4-methylpyridin-3-yl)benzo[d]thiazol-2-yl)cyclopropane-1-carboxamide free base appears as light yellow powder. Subsequently, the physical and thermal properties of free base were characterized. […] This free base form was named as Pattern A.

- Final pH value ([1]; FaSSIF, initial pH 6.52): 6.50
- Final pH value ([1]; FeSSIF, initial pH 5.07): 5.09
- Final pH value ([1]; SGF, initial pH 1.92): 2.28
- solubility at 24 h ([1]; aqueous buffer, pH 2.0 buffer, initial pH 1.98, 37° C., 24 hrs): 2060 µg/mL (≈ 6.29 mM)
- solubility at 24 h ([1]; aqueous buffer, pH 4.0 buffer, initial pH 4.01, 37° C., 24 hrs): 31 µg/mL (≈ 0.0947 mM)
- solubility at 24 h ([1]; aqueous buffer, pH 6.0 buffer, initial pH 5.90, 37° C., 24 hrs): 2 µg/mL (≈ 0.00611 mM)
- Final pH value ([1]; pH 2.0 buffer, initial pH 1.98): 2.25
- Final pH value ([1]; pH 4.0 buffer, initial pH 4.01): 4.05
- Final pH value ([1]; pH 6.0 buffer, initial pH 5.90): 5.88
- Final pH value ([1]; pH 8.0 buffer, initial pH 8.04): 8.08
- solubility at 24 h ([1]; simulated gastric fluid, SGF, initial pH 1.92, 37° C., 24 hrs): 2490 µg/mL (≈ 7.61 mM)
- solubility at 24 h ([1]; simulated gastric fluid, in SGF and pH 2.0 buffer, 37° C., called medium solubility): 2000 to 2500 µg/mL (≈ 6.11 to 7.64 mM)
- solubility at 24 h ([1]; FeSSIF, initial pH 5.07, 37° C., 24 hrs): 45 µg/mL (≈ 0.137 mM)
- Final pH value ([1]; water): 8.84
- solubility ([2]; aqueous with cosolvent or surfactant or cyclodextrin, thermodynamic from solid, Acetone/H2O (1/1, v/v), 25° C., read-out: Solubility): < 5000 µg/mL
- solubility ([2]; aqueous with cosolvent or surfactant or cyclodextrin, thermodynamic from solid, Acetone/H2O (1/1, v/v), 50° C., read-out: Solubility): < 5000 µg/mL
- solubility ([2]; aqueous with cosolvent or surfactant or cyclodextrin, thermodynamic from solid, EtOH/H2O (1/1, v/v), 25° C., read-out: Solubility): < 5000 µg/mL
- solubility ([2]; aqueous with cosolvent or surfactant or cyclodextrin, thermodynamic from solid, EtOH/H2O (1/1, v/v), 50° C., read-out: Solubility): < 5000 µg/mL
- solubility ([2]; in DMF and DMSO): relatively high solubility
- solubility ([2]; in mostly common use solvents): relatively low solubility
- solubility ([2]; organic solvent or mixture, thermodynamic from solid, 1,4-dioxane, 25° C., read-out: Solubility): < 5000 µg/mL
- solubility ([2]; organic solvent or mixture, thermodynamic from solid, 1,4-dioxane, 50° C., read-out: Solubility): 7000 to 10000 µg/mL (≈ 21.4 to 30.5 mM)
- solubility ([2]; organic solvent or mixture, thermodynamic from solid, 2-Propanol (IPA), 25° C., read-out: Solubility): < 5000 µg/mL
- solubility ([2]; organic solvent or mixture, thermodynamic from solid, 2-Propanol (IPA), 50° C., read-out: Solubility): < 5000 µg/mL
- solubility ([2]; organic solvent or mixture, thermodynamic from solid, Acetone, 25° C., read-out: Solubility): < 5000 µg/mL
- solubility ([2]; organic solvent or mixture, thermodynamic from solid, Acetone, 50° C., read-out: Solubility): < 5000 µg/mL
- solubility ([2]; organic solvent or mixture, thermodynamic from solid, Acetonitrile (ACN), 25° C., read-out: Solubility): < 5000 µg/mL
- solubility ([2]; organic solvent or mixture, thermodynamic from solid, Acetonitrile (ACN), 50° C., read-out: Solubility): < 5000 µg/mL
- solubility ([2]; organic solvent or mixture, thermodynamic from solid, Dichloromethane (DCM), 25° C., read-out: Solubility): < 5000 µg/mL
- solubility ([2]; organic solvent or mixture, thermodynamic from solid, Dimethylsulfoxide (DMSO), 25° C., read-out: Solubility): > 100000 µg/mL
- solubility ([2]; organic solvent or mixture, thermodynamic from solid, Ethyl acetate (EtOAc), 25° C., read-out: Solubility): < 5000 µg/mL
- solubility ([2]; organic solvent or mixture, thermodynamic from solid, Ethyl acetate (EtOAc), 50° C., read-out: Solubility): < 5000 µg/mL
- solubility ([2]; organic solvent or mixture, thermodynamic from solid, Ethyl alcohol (EtOH), 25° C., read-out: Solubility): < 5000 µg/mL
- solubility ([2]; organic solvent or mixture, thermodynamic from solid, Ethyl alcohol (EtOH), 50° C., read-out: Solubility): < 5000 µg/mL
- solubility ([2]; organic solvent or mixture, thermodynamic from solid, Heptane, 25° C., read-out: Solubility): < 5000 µg/mL
- solubility ([2]; organic solvent or mixture, thermodynamic from solid, Heptane, 50° C., read-out: Solubility): < 5000 µg/mL
- solubility ([2]; organic solvent or mixture, thermodynamic from solid, Isopropyl acetate (IPAc), 25° C., read-out: Solubility): < 5000 µg/mL
- solubility ([2]; organic solvent or mixture, thermodynamic from solid, Isopropyl acetate (IPAc), 50° C., read-out: Solubility): < 5000 µg/mL
- solubility ([2]; organic solvent or mixture, thermodynamic from solid, Methanol (MeOH), 25° C., read-out: Solubility): < 5000 µg/mL
- solubility ([2]; organic solvent or mixture, thermodynamic from solid, Methanol (MeOH), 50° C., read-out: Solubility): 5000 to 7000 µg/mL (≈ 15.3 to 21.4 mM)
- solubility ([2]; organic solvent or mixture, thermodynamic from solid, Methyl ethyl ketone (MEK), 25° C., read-out: Solubility): < 5000 µg/mL
- solubility ([2]; organic solvent or mixture, thermodynamic from solid, Methyl ethyl ketone (MEK), 50° C., read-out: Solubility): < 5000 µg/mL
- solubility ([2]; organic solvent or mixture, thermodynamic from solid, Methyl isobutyl ketone (MIBK), 25° C., read-out: Solubility): < 5000 µg/mL
- solubility ([2]; organic solvent or mixture, thermodynamic from solid, Methyl isobutyl ketone (MIBK), 50° C., read-out: Solubility): < 5000 µg/mL
- solubility ([2]; organic solvent or mixture, thermodynamic from solid, Methyl tert-butyl ether (MtBE), 25° C., read-out: Solubility): < 5000 µg/mL
- solubility ([2]; organic solvent or mixture, thermodynamic from solid, Methyl tert-butyl ether (MtBE), 50° C., read-out: Solubility): < 5000 µg/mL
- solubility ([2]; organic solvent or mixture, thermodynamic from solid, N,N-Dimethylformamide (DMF), 25° C., read-out: Solubility): 67000 to 100000 µg/mL (≈ 205 to 305 mM)
- solubility ([2]; organic solvent or mixture, thermodynamic from solid, N,N-Dimethylformamide (DMF), 50° C., read-out: Solubility): > 100000 µg/mL
- solubility ([2]; organic solvent or mixture, thermodynamic from solid, Tetrahydrofuran (THF), 25° C., read-out: Solubility): 8000 to 10000 µg/mL (≈ 24.4 to 30.5 mM)
- solubility ([2]; organic solvent or mixture, thermodynamic from solid, Tetrahydrofuran (THF), 50° C., read-out: Solubility): 9000 to 13000 µg/mL (≈ 27.5 to 39.7 mM)
- solubility ([2]; organic solvent or mixture, thermodynamic from solid, Toluene, 25° C., read-out: Solubility): < 5000 µg/mL
- solubility ([2]; organic solvent or mixture, thermodynamic from solid, Toluene, 50° C., read-out: Solubility): < 5000 µg/mL
- solubility ([2]; thermodynamic from solid, Water, 25° C., read-out: Solubility): < 5000 µg/mL
- solubility ([2]; thermodynamic from solid, Water, 50° C., read-out: Solubility): < 5000 µg/mL
- Hygroscopicity (DVS) [3]: Hygroscopic
- DVS (ΔW %, 80% RH) ([3]; 25° C., 80% RH): 2.30%
- Form change (Yes/No, XRPD) ([3]; XRPD, listed after DVS): (No)
Compound: Cc1ccncc1-c1ccc2nc(NC(=O)[C@@H]3C[C@@H]3F)sc2c1 [free base, (1S,2S)-2-fluoro-N-(6-(4-methylpyridin-3-yl)benzo[d]thiazol-2-yl)cyclopropane-1-carboxamide]
